Where a name gives a salt, the structure may show the parent alone.

In one assay the target is hNav1.7 (Homo sapiens (Human), UniProt Q15858). Put plainly: Tritiated sulfonamide competitive binding to membranes from cells expressing hNav1.7 and the β1 subunit.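 Also: Filter-bound radioactivity counted by liquid scintillation, nonspecific binding defined with excess unlabelled ligand, IC50 fitted to percent inhibition of specific binding.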
Chain of hNav1.7 (Q15858 other isoform, or with tags, fused parts or gaps): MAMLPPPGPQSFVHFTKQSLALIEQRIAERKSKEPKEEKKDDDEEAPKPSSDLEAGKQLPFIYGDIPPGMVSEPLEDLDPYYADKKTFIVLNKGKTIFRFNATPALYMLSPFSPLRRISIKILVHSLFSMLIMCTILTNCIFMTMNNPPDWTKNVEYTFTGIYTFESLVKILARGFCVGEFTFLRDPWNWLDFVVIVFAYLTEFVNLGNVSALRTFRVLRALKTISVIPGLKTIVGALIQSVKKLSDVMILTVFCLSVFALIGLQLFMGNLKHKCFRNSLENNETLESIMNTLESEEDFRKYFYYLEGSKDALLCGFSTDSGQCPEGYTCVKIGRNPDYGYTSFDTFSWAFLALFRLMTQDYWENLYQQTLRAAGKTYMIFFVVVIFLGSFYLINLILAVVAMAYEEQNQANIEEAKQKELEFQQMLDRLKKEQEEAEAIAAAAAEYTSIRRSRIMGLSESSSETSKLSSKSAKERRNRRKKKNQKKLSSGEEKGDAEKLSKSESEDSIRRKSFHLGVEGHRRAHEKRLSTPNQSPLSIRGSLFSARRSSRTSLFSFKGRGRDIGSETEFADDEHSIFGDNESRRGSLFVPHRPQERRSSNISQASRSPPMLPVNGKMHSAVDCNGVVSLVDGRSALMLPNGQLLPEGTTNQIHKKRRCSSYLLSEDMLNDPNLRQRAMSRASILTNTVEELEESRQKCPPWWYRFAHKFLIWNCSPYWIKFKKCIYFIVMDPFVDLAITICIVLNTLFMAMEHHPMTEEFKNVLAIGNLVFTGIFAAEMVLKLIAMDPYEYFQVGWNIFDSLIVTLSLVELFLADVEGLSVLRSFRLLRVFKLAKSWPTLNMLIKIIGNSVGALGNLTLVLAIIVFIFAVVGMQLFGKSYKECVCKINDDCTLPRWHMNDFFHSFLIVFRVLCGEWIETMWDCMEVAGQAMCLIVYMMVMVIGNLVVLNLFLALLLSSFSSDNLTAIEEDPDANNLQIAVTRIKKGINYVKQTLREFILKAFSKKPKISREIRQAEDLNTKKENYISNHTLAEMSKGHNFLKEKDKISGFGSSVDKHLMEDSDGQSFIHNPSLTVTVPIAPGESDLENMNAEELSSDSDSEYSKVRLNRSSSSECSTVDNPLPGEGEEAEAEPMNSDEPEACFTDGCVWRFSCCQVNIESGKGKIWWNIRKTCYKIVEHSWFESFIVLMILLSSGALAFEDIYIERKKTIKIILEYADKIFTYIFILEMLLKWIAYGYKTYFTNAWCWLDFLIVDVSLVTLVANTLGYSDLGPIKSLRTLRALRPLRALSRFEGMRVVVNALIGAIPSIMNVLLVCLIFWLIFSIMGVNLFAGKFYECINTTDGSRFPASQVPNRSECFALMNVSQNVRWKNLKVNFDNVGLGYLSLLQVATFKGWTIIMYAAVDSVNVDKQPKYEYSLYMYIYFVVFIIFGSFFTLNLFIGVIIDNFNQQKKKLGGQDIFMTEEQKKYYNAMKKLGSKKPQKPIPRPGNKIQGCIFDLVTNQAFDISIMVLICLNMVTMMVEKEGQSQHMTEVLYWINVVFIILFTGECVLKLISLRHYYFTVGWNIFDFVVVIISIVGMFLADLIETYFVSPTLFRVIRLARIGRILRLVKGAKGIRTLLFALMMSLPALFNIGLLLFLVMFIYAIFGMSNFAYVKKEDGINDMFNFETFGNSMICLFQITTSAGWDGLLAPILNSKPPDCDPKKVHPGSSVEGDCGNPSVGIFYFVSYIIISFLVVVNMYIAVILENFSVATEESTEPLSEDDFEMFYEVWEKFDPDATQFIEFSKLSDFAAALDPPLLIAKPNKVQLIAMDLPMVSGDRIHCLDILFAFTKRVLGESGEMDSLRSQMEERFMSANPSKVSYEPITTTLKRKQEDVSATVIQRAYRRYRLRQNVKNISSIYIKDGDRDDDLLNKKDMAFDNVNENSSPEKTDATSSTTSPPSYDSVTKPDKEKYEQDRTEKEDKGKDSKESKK
Chain of hNav1.7 (Q07699 19-218 partner): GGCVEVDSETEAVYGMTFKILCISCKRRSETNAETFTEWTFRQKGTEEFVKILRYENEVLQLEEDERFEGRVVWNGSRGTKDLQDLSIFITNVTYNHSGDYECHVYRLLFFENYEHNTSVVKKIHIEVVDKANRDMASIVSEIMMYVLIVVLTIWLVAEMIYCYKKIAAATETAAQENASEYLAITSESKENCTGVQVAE
Settings: not given
`O=C(NS(=O)(=O)C1CC1)c1cc(C2CC2)c(O[C@@H]2CCCN(Cc3ccc(F)cc3F)C2)cc1F` [Example 9, (R)-5-cyclopropyl-N-(cyclopropylsulfonyl)-4-((1-(2,4-difluorobenzyl)-piperidin-3-yl)oxy)-2-fluorobenzamide] registered an IC50 of 3.5 nM. On the same count and under the same terms, then `O=C(NS(=O)(=O)C1CC1)c1cc(C2CC2)c(CN2CCC(Oc3ccccc3C(F)(F)F)CC2)cc1F` [Example 498, 5-cyclopropyl-N-(cyclopropylsulfonyl)-2-fluoro-4-((4-(2-(trifluoromethyl)phenoxy)piperidin-1-yl)methyl)benzamide], with 87.4 nM.

`CC(c1cc(Cl)cc(Cl)c1)N1CCN(Cc2cc(F)c(C(=O)NS(=O)(=O)C3CC3)cc2C2CC2)CC1` (centres unmarked) [Example 541, 5-cyclopropyl-N-(cyclopropylsulfonyl)-4-((4-(1-(3,5-dichlorophenyl)ethyl)piperazin-1-yl)methyl)-2-fluorobenzamide] showed an IC50 of 5.9 nM. In turn, `O=C(NS(=O)(=O)N1CCC1)c1cc(C2CC2)c(O[C@@H]2CCCN(c3ccc(F)cc3)C2)cc1F` [Example 37, (R)—N-(azetidin-1-ylsulfonyl)-5-cyclopropyl-2-fluoro-4-((1-(4-fluorophenyl)piperidin-3-yl)oxy)benzamide, trifluoroacetic acid salt] registered an IC50 of 15.1 nM. Still for that read-out and setting: in the case of `O=C(NS(=O)(=O)C1CC1)c1cc(C2CC2)c(CN2CCC(Oc3ccc(Cl)cc3Cl)CC2)cc1F` [Example 547, 5-cyclopropyl-N-(cyclopropylsulfonyl)-4-((4-(2,4-dichlorophenoxy)piperidin-1-yl)methyl)-2-fluorobenzamide, trifluoroacetic acid salt] it was 8.2 nM. Same read-out and setting: in the case of `O=C(NS(=O)(=O)C1CC1)c1cc(C2CC2)c(CN2CCC([S+]([O-])c3cc(Cl)cc(Cl)c3)CC2)cc1F` (centres unmarked) [Example 535, 5-cyclopropyl-N-(cyclopropylsulfonyl)-4-((4-((3,5-dichlorophenyl)sulfinyl)piperidin-1-yl)methyl)-2-fluorobenzamide, trifluoroacetic acid salt] it was 720 nM.

Staying with this assay, now noted: read-out: Ligand Binding Assay; 100 pM [3H]compound, membranes with hNav1.7 and β1 subunit, 18 h, room temperature.
`CS(=O)(=O)NC(=O)c1cc(C2CC2)c(OCC2CCN(C(c3cccc(Cl)c3)c3cccc(Cl)c3)CC2)cc1F` [Example 352, 4-((1-(bis(3-chlorophenyl)methyl)piperidin-4-yl)methoxy)-5-cyclopropyl-2-fluoro-N-(methylsulfonyl)benzamide, trifluoroacetic acid salt]: the IC50 was 2 nM.

For `CCS(=O)(=O)NC(=O)c1cc(C2CC2)c(OC[C@@H]2CC[C@@H](C)N([C@@H](C)c3cc(Cl)cc(Cl)c3)C2)cc1F` [Example 344, trifluoroacetic acid salt], the IC50 worked out at 6.9 nM. On to `O=C(NS(=O)(=O)N1CCC1)c1cc(C2CC2)c(OCC2CCN(Cc3cc(C(F)(F)F)cc(Cl)c3F)CC2)cc1F` [Example 583, N-(azetidin-1-ylsulfonyl)-4-((1-(3-chloro-2-fluoro-5-(trifluoromethyl)benzyl)piperidin-4-yl)methoxy)-5-cyclopropyl-2-fluorobenzamide], for which the IC50 stood at 3.4 nM. Take `O=C(NS(=O)(=O)C1CC1)c1cc(C2CC2)c(OCC2CCN(S(=O)(=O)c3cc(Cl)c(Br)cc3F)CC2)cc1F` [Example 367, 4-((1-((4-bromo-5-chloro-2-fluorophenyl)sulfonyl)piperidin-4-yl)methoxy)-5-cyclopropyl-N-(cyclopropylsulfonyl)-2-fluorobenzamide]: the IC50 stood at 8.3 nM.

Regarding `O=C(NS(=O)(=O)CC1CC1)c1cc(C2CC2)c(OCC2CN(C(c3ccccc3)c3ccccc3)C2)cc1F` [Example 64, 4-((1-benzhydrylazetidin-3-yl)methoxy)-5-cyclopropyl-N-((cyclopropylmethyl)-sulfonyl)-2-fluorobenzamide], the IC50 stood at 4.7 nM. Same read-out and setting: in the case of `O=C(NS(=O)(=O)C1CC1)c1cc(C2CC2)c(OCC2CCN(S(=O)(=O)C3COC3)CC2)cc1F` [Example 393, 5-cyclopropyl-N-(cyclopropylsulfonyl)-2-fluoro-4-((1-(oxetan-3-ylsulfonyl)piperidin-4-yl)methoxy)benzamide] it was 1380 nM; in that of `CS(=O)(=O)NC(=O)c1cc(C2CC2)c(OCC2CCN([C@@H]3c4ccccc4C[C@@H]3O)CC2)cc1F` [Example 199, 5-Cyclopropyl-2-fluoro-4-((1-((1R,2S)-2-hydroxy-2,3-dihydro-1H-inden-1-yl)piperidin-4-yl)methoxy)-N-(methylsulfonyl)benzamide], 1400 nM; in that of `CS(=O)(=O)NC(=O)c1cc(C2CC2)c(OCC2CCN(Cc3ccc(F)c(F)c3)CC2)cc1F` [Example 160, 5-Cyclopropyl-4-((1-(3,4-difluorobenzyl)piperidin-4-yl)methoxy)-2-fluoro-N-(methylsulfonyl)benzamide], 62.8 nM. As to `CS(=O)(=O)NC(=O)c1cc(C2CC2)c(OCC2CN([C@@H](c3ccccc3)c3cccc(C#N)c3)C2)cc1F` [Example 108, (S)-4-((1-((3-Cyanophenyl)(phenyl)methyl)azetidin-3-yl)methoxy)-5-cyclopropyl-2-fluoro-N-(methylsulfonyl)benzamide], the IC50 is 94 nM. As to `CS(=O)(=O)NC(=O)c1cc(C2CC2)c(CN2[C@@H]3CC[C@H]2CC(Oc2cc(C(F)(F)F)cc(Cl)c2F)C3)cc1F` (stereo partly drawn) [Example 471, 4-(((1R,3r,5S)-3-(3-chloro-2-fluoro-5-(trifluoromethyl)phenoxy)-8-azabicyclo[3.2.1]octan-8-yl)methyl)-5-cyclopropyl-2-fluoro-N-(methylsulfonyl)benzamide 2,2,2-trifluoroacetate], the IC50 is 3.7 nM. Still for that read-out and setting: in the case of `COC[C@H](c1cc(Cl)cc(Cl)c1)N1CCC(COc2cc(F)c(C(=O)NS(C)(=O)=O)cc2C2CC2)CC1` (single isomer, unassigned) [Example 163] it was 3.6 nM; in that of `CCS(=O)(=O)NC(=O)c1cc(C2CC2)c(OCC2CCN([C@H](c3cc(Cl)cc(Cl)c3)C(F)F)CC2)cc1F` [Example 227, (R)-5-cyclopropyl-4-((1-(1-(3,5-dichlorophenyl)-2,2-difluoroethyl)piperidin-4-yl)methoxy)-N-(ethylsulfonyl)-2-fluorobenzamide], 8.1 nM. Take `COC[C@H](c1ccc(Cl)c(Cl)c1)N1CCC(COc2cc(F)c(C(=O)NS(C)(=O)=O)cc2C2CC2)CC1` (single isomer, unassigned) [Example 265]: the IC50 was 100 nM. In the case of `COC[C@H](c1ccc(F)c(C(F)(F)F)c1)N1CCC(COc2cc(F)c(C(=O)NS(C)(=O)=O)cc2C2CC2)CC1` (single isomer, unassigned) [Example 188], the IC50 was 5.2 nM. Same read-out and setting: then `COC[C@H](c1ccc(F)c(Cl)c1)N1CCC(COc2cc(F)c(C(=O)NS(C)(=O)=O)cc2C2CC2)CC1` (single isomer, unassigned) [Example 182], with 14 nM; and `CS(=O)(=O)NC(=O)c1cc(C2CC2)c(OCC2CCN(c3cc(Cl)cc(Cl)c3)CC2)cc1F` [Example 292, 5-Cyclopropyl-4-((1-(3,5-dichlorophenyl)piperidin-4-yl)methoxy)-2-fluoro-N-(methylsulfonyl)benzamide], with 2.9 nM. Take `C[C@H](c1cc(Cl)cc(Cl)c1)N1CCC(COc2cc(F)c(C(=O)NS(C)(=O)=O)cc2Cl)CC1` [Example 404, (R)-5-chloro-4-((1-(1-(3,5-dichlorophenyl)ethyl)piperidin-4-yl)methoxy)-2-fluoro-N-(methylsulfonyl)benzamide, trifluoroacetic acid]: the IC50 came to 20.1 nM. Regarding `CS(=O)(=O)NC(=O)c1cc(C2CC2)c(OCC2CN(Cc3ccc(C(F)(F)F)c(F)c3)C2)cc1F` [Example 76, 5-cyclopropyl-2-fluoro-4-((1-(3-fluoro-4-(trifluoromethyl)benzyl)azetidin-3-yl)methoxy)-N-(methylsulfonyl)benzamide], the IC50 was 42 nM. On the same count and under the same terms, in the case of `CC(C)(C)OC(=O)N1CC(COc2cc(F)c(C(=O)NS(C)(=O)=O)cc2C2CC2)C1` [Example 72, tert-butyl 3-((2-cyclopropyl-5-fluoro-4-((methylsulfonyl)carbamoyl)phenoxy)methyl)azetidine-1-carboxylate] it was 750 nM; in that of `C[C@@H](c1cc(F)cc(Cl)c1)N1CCC(COc2cc(F)c(C(=O)NS(C)(=O)=O)cc2C2CC2)CC1` (single isomer, unassigned) [Example 231], 5.9 nM; in that of `CS(=O)(=O)NC(=O)c1cc(C2CC2)c(O[C@@H]2CCCN(Cc3cc(Cl)ccc3O)C2)cc1F` [Example 427, (R)-4-((1-(5-chloro-2-hydroxybenzyl)piperidin-3-yl)oxy)-5-cyclopropyl-2-fluoro-N-(methylsulfonyl)benzamide, trifluoroacetic acid salt], 19 nM.

For `O=C(NS(=O)(=O)C1CC1)c1cc(C2CC2)c(OCC2CCN(Cc3cc(C(F)(F)F)cc(C4CC4)n3)CC2)cc1F` [Example 308], the IC50 was found to be 6 nM.

As to `CS(=O)(=O)NC(=O)c1cc(C2CC2)c(OCC2CCN(CC(F)(F)C(F)F)CC2)cc1F` [Example 192, 5-Cyclopropyl-2-fluoro-N-(methylsulfonyl)-4-((1-(2,2,3,3-tetrafluoropropyl)piperidin-4-yl)methoxy)benzamide], the IC50 is 34 nM.

As to `CC1(COc2cc(F)c(C(=O)NS(C)(=O)=O)cc2C2CC2)CN(Cc2cc(C(F)(F)F)cc(Cl)c2F)C1` [Example 593, 4-((1-(3-chloro-2-fluoro-5-(trifluoromethyl)benzyl)-3-methylazetidin-3-yl)methoxy)-5-cyclopropyl-2-fluoro-N-(methylsulfonyl)benzamide], the IC50 was found to be 9.9 nM. Turning to `CS(=O)(=O)NC(=O)c1cc(C2CC2)c(OCC2CCN(Cc3cc(F)c(Br)cc3F)CC2)cc1F` [Example 588, 4-((1-(4-bromo-2,5-difluorobenzyl)piperidin-4-yl)methoxy)-5-cyclopropyl-2-fluoro-N-(methylsulfonyl)benzamide], the IC50 turned out to be 6.9 nM. For the compound `CS(=O)(=O)NC(=O)c1cc(C2CC2)c(OCC2CCN(S(=O)(=O)c3cc(Cl)cc(Cl)c3)CC2)cc1F` [Example 273, 5-Cyclopropyl-4-((1-((3,5-dichlorophenyl)sulfonyl)piperidin-4-yl)methoxy)-2-fluoro-N-(methylsulfonyl)benzamide], the IC50 was 8.5 nM.

For the origin of these results see patent publication US9546164B2 (GENENTECH, INC., priority 2013, dated 2017).
